The source of these data is ChEMBL document CHEMBL4808229, “Privileged scaffolds in medicinal chemistry: Studies on pyrazolo[1,5-a]pyrimidines on sulfonamide containing Carbonic Anhydrase inhibitors” (Bioorg Med Chem Lett, 2021).

The target of the assay is Carbonic anhydrase 9 (Homo sapiens, UniProt Q16790). Kind of assay: Inhibition of recombinant human carbonic anhydrase 9 by stopped-flow CO2 hydration assay.
`CCOC(=O)c1cnc2c(NC(=S)NCc3ccc(S(N)(=O)=O)cc3)cnn2c1C`: the Ki is 23 nM.

As to `CCOC(=O)c1cnc2c(NC(=O)c3ccc(Cl)c(S(N)(=O)=O)c3)cnn2c1C`, the Ki was determined as 6.5 nM.

Turning to `CCOC(=O)c1cnc2c(NC(=S)Nc3cccc(S(N)(=O)=O)c3)cnn2c1C`, the Ki amounted to 312 nM.

Take `Cc1c(C(=O)O)cnc2c(NC(=O)Nc3ccc(S(N)(=O)=O)cc3)cnn12`: the Ki turned out to be 851 nM.

For `Cc1c(C(=O)O)cnc2c(NC(=O)NCc3ccc(S(N)(=O)=O)cc3)cnn12`, the Ki amounted to 703 nM.

On to `CCOC(=O)c1cnc2c(NC(=O)NCc3ccc(S(N)(=O)=O)cc3)cnn2c1C`, for which the inhibitory constant (Ki) was found to be 9.7 nM.

Turning to `CCOC(=O)c1cnc2c(NC(=S)NCCc3ccc(S(N)(=O)=O)cc3)cnn2c1C`, the Ki was 919 nM.

As to `CCOC(=O)c1cnc2c(NC(=S)Nc3ccc(S(N)(=O)=O)cc3)cnn2c1C`, the inhibition constant (Ki) was found to be 680 nM.

Take `Cc1c(C(=O)O)cnc2c(NC(=O)c3ccc(S(N)(=O)=O)cc3)cnn12`: the Ki was 142 nM.

For the compound `CCOC(=O)c1cnc2c(NC(=O)NCCc3ccc(S(N)(=O)=O)cc3)cnn2c1C`, the Ki was 975 nM.

As to `Cc1c(C(=O)O)cnc2c(NC(=O)Nc3cccc(S(N)(=O)=O)c3)cnn12`, the Ki was 523 nM.

`Cc1c(C(=O)O)cnc2c(NC(=O)NCCc3ccc(S(N)(=O)=O)cc3)cnn12`: the Ki was 212 nM.

`CCOC(=O)c1cnc2c(NC(=O)c3ccc(S(N)(=O)=O)cc3)cnn2c1C`: the Ki came out at 142 nM.

Take `CCOC(=O)c1cnc2c(NC(=O)N/C=C/c3ccc(S(N)(=O)=O)cc3)cnn2c1C`: the inhibition constant (Ki) was 843 nM.
